In patent US8629251B2, “Specific detection and quantification of phosphatidic acid using an Arabidopsis trigalactosyldiacylglycerol-4 (TGD4) protein” (Board of Trustees of Michigan State University, priority 2008, dated 2014):

Assays:
Type in all cases: binding
[1] = target: T1, Arabidopsis TGD2, DsRed-TGD2C WT (DR-WT) fusion protein, residues 119-381, SEQ ID NO:107 (Arabidopsis thaliana, UniProt Q9LTR2); assay: Liposome-association assay (mixed PA/PC liposomes), DsRed-TGD2C WT
T1 construct: made in house; host or cells: Escherichia coli BL21 (DE3)
T1 sequence (Q9LTR2 119-381): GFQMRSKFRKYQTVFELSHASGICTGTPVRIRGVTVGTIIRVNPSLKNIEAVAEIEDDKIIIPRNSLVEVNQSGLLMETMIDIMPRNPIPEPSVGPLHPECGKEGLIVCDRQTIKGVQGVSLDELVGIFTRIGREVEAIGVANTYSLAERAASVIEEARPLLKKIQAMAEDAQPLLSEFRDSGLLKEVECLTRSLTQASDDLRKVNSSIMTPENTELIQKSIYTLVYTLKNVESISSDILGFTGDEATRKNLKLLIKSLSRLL
Method: FIG. 2A: Analysis by liposome-association assay. A mixture of dioleoyl-PA and dioleoyl-PC was used where the weight percent of PA was varied from 0-100% (wt/wt), maintaining the total lipid invariant at 250 μg. 1 μg protein was used. P, protein recovered in the absence of lipids.
In this assay, purified recombinant proteins were incubated with liposomes for 30 min at 30° C. before centrifugation at 20,000 g for 10 min to pellet the liposomes. Proteins bound to the liposomes were found associated with the lipid pellet, whereas non-binding proteins remained in the supernatant. In an effort to determine the optimal concentration of PA required for high specificity binding, a PA/PC liposome mixture containing varying weight fractions of PA was prepared and incubated with DsRed-TGD2CWT or DsRed alone.
(§1) The liposome association assay was performed as previously reported. (31). Briefly, lipids (dioleoyl-phosphatidylcholine, DOPC or dioleoyl-PA, DOPA) were incubated in TBS (50 mM Tris-HCl, pH 7; 0.1 M NaCl) at 37° C. for an hour followed by vigorous vortexing for 5 min. The liposomes were precipitated at 20,000 g and washed twice with ice-cold TBS.
(§2) Liposomes (200 μg) were mixed with purified DsRed-TGD2 fusion protein and TBS to make a final 100 μL solution. The mixture was incubated at 30° C. for 30 min and washed twice with ice-cold TBS by centrifugation at 20,000 g at 4° C. The liposome pellet mixed with sample buffer was analyzed by SDS-PAGE (28). Immuno-detection of the His-tagged protein was accomplished using the above mentioned Penta-His antibody at 1:15,000 and the anti mouse antibody at 1:75,000 dilution.
(§3) The protein band was visualized by chemiluminescent detection kit from Sigma. The autoradiography film was scanned, distinct protein bands were quantified using computer software Multi Gauge V3.0 (Fujifilm USA, Valhalla, N.Y.) and resulted data were plotted and analyzed by OriginPro8 (Origin lab corporation, Northampton, Mass.).

[2] = target: Arabidopsis TGD2, DsRed-TGD2C D2 (Δ221-225, SEQ ID NO:46) (Arabidopsis thaliana, UniProt Q9LTR2, DEL221-225); assay: Liposome-association assay, TGD2C D2 (Δ221-225); conditions: FIG. 3C
Arabidopsis TGD2, DsRed-TGD2C D2 (Δ221-225, SEQ ID NO:46), sequence (Q9LTR2 other isoform, or with tags, fused parts or gaps DEL221-225): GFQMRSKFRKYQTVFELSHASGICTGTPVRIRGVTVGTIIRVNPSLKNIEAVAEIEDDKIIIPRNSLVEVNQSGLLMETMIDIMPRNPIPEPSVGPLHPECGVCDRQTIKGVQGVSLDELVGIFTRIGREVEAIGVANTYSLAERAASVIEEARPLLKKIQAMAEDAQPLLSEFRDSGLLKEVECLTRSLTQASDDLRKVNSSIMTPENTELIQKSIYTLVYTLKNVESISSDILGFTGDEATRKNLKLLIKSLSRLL
Method: as §1, §2, §3

[3] = target: T2, Arabidopsis TGD4, TGD4N-DsRED-His (N-terminal fragment 1-286, SEQ ID NO:130) (Arabidopsis thaliana, UniProt Q9M903); assay: Liposome association assay, TGD4N-DsRED-His; conditions: dioleoyl-PtdOH/dioleoyl-PtdCho liposomes, 0 to 80% PtdOH, FIG. 19B
T2 construct: made in house; host or cells: Escherichia coli BL21 (DE3)
T2 sequence (Q9M903 1-286): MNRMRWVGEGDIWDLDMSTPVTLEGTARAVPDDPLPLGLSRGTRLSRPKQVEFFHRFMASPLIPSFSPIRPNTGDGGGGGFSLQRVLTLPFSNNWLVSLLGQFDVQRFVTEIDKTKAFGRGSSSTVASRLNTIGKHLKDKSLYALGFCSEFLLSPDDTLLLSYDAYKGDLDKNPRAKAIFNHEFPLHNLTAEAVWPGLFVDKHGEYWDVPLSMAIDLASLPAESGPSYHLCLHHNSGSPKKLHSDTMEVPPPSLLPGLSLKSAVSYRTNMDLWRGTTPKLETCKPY
Method: Liposome Association Assay:
The liposome association assay was adapted from (Awai et al., 2006, Lu and Benning, 2009) with minor modifications. Dioleoyl-PtdCho and PtdOH with different acyl chain lengths and desaturation levels were used for making liposomes. In other liposomes 1-palmitoyl-2-(12-((7-nitro-2-1,3-benzoxadiazol-4-yl)amino)dodecanoyl)-sn-glycero-3-phosphate (NBD-PtdOH; Avanti, Alabaster, Ala.) was used. The lipids were mixed at indicated ratios to give a total lipid amount of 250 μg. The lipids were dried under a stream of nitrogen, resuspended in 0.5 ml TBS buffer with 0.2 M choline chloride and hydrated at 37° C. for 1 hour followed by vigorous vortexing for 2 minutes. The resulting multi-lamellar vesicles were centrifuged at 13,000×g for 10 minutes and then washed once with TBS buffer containing 0.2 M choline chloride. The liposomes were resuspended into 100 μl TBS buffer with 0.2 M choline chloride and incubated with 2 μg purified DsRED-TGD4-His protein and its derivatives. The protein liposome mixture was incubated on ice for 30 minutes followed by centrifugation at 13,000×g for 10 minutes and two washes with 500 μl TBS containing 0.2 M choline chloride. The resulting protein-liposome pellet was resuspended in 20 μl 2× Laemmli buffer (Laemmli, 1970) and processed by SDS-PAGE (Shapiro and Maizel, 1969).

[4] = DR-WT as quantification control, mixed PA/PC liposomes, FIGS. 5A-5C

CCCCCCCC/C=C\CCCCCCCC(=O)OC[C@H](COP(=O)(O)O)OC(=O)CCCCCCC/C=C\CCCCCCCC [PA, phosphatidic acid]
Hill number, PA binding [1, 4]: 2.8
modified Kd, PA binding [1, 4]: 37.66 mol %
binding to PA or PC ([1]; PC, PA/PC or PA liposomes, FIG. 3B): significant binding
Hill number, PA binding ([1]; dioleoyl-PA/dioleoyl-PC liposomes, FIG. 2B): 5.8
PA binding [2]: decreased binding activity dramatically
PtdOH binding affinity [3]: comparable to the full-length protein DsRED-TGD4-His
